Results from patent US20220289698A1, “INHIBITORS OF HUMAN ATGL” (Karl-Franzens-Universität Graz, priority 2019, published 2022).
Where two headings read alike, the source gives them in different places.

Columns and labels:
hPNPLA9 = molecular target: T1, hPNPLA9 (Homo sapiens, UniProt O60733); experiment: hPNPLA9 off-target inhibition; format: biochemical; details: read-out: hPNPLA9 off-target inhibition [% inhibition at 100 μM]
T1 construct: made in house; host or cells: Expi cells (lysate)
T1 sequence (O60733 1-806): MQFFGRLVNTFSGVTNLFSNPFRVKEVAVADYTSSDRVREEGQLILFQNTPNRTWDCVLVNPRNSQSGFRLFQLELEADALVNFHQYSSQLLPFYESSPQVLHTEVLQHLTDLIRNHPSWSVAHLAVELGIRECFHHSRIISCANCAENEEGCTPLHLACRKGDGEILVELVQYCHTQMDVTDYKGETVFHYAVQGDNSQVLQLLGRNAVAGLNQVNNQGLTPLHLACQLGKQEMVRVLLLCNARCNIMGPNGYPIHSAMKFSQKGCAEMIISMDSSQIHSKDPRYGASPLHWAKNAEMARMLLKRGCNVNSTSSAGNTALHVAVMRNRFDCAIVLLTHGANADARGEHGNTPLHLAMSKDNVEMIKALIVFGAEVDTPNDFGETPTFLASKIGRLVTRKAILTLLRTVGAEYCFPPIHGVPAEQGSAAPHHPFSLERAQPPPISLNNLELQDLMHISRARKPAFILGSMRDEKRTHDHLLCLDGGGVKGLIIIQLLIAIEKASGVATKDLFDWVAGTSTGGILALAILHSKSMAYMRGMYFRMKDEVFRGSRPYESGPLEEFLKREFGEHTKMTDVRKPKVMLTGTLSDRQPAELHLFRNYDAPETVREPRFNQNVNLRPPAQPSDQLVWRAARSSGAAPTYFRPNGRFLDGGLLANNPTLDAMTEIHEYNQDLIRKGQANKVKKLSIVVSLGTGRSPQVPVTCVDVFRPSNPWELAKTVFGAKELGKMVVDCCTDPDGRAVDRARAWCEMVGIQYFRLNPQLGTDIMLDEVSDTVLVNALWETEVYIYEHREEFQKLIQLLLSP
Protocol: Expi lysates expressing hPNPLA9 were treated with 100 μM Inhibitors and incubated with 1 mM C8 monoacylglycerol substrate (containing 5 mM CHAPS, 50 mM NaPh buffer ph7.4, 0.15 M NaCl) for 40 min. Glycerol release was determined via Free glycerol reagent (Sigma Aldrich). Samples measured in triplicates, […]

[1] = tested on: differentiated SGBS adipocytes; experiment: Isoproterenol-stimulated lipolysis in differentiated SGBS adipocytes; format: cell-based; details: Homo sapiens, 2 h pretreatment, 1 μM isoproterenol 1 h
Protocol: Human differentiated SGBS adipocytes were pretreated with DMSO or ATGL inhibitors for 2 h. Subsequently, lipolysis was stimulated with 1 μM Isoproterenol for 1 h and fatty acid release was determined from media via NEFA Reagent (Wako Diagnostics). Samples were measured in triplicates.
Human differentiated SGBS adipocytes were pretreated with DMSO or ATGL inhibitors for 2 h. Subsequently, lipolysis was stimulated with 1 μM Isoproterenol for 1 h and glycerol release was determined from media via Free glycerol reagent (Sigma Aldrich). Samples were measured in triplicates.

murine ATGL = molecular target: T2, murine ATGL (Mus musculus, UniProt Q8BJ56); experiment: TG hydrolase activity, Expi lysates expressing mouse ATGL + CGI-58, radiolabelled triolein; format: biochemical
T2 construct: made in house; host or cells: Expi cells (lysate)
T2 sequence (Q8BJ56 1-486): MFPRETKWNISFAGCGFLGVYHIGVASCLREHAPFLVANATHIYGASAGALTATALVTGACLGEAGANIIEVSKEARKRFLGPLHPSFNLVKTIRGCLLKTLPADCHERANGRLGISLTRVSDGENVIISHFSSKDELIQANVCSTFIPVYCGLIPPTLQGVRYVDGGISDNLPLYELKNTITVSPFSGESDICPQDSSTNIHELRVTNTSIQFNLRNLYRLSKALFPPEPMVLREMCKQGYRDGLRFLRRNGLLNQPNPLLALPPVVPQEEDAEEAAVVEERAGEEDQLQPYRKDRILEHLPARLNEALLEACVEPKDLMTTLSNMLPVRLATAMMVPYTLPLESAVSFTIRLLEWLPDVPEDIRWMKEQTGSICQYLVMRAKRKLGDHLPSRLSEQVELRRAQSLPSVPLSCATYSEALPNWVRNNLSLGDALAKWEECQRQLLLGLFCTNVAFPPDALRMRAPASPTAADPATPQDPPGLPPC
Procedure, shortened: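 Lysates of Expi cells overexpressing mouse ATGL, with added recombinant CGI-58, were incubated with inhibitor at 50 μM. Substrate was emulsified radiolabelled triolein with PC/PI in 100 mM potassium phosphate pH 7.0 and 5% FA-free BSA, 1 h at 37° C. Released FA were extracted and counted by scintillation; triplicates, DMSO control.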

human ATGL [2] = molecular target: T3, human ATGL (Homo sapiens, UniProt Q96AD5); experiment: TG hydrolase activity, Expi cell lysates expressing human ATGL + CGI-58, radiolabelled triolein; format: biochemical
T3 construct: made in house; host or cells: Expi cells (lysate, not purified)
T3 sequence (Q96AD5 1-504): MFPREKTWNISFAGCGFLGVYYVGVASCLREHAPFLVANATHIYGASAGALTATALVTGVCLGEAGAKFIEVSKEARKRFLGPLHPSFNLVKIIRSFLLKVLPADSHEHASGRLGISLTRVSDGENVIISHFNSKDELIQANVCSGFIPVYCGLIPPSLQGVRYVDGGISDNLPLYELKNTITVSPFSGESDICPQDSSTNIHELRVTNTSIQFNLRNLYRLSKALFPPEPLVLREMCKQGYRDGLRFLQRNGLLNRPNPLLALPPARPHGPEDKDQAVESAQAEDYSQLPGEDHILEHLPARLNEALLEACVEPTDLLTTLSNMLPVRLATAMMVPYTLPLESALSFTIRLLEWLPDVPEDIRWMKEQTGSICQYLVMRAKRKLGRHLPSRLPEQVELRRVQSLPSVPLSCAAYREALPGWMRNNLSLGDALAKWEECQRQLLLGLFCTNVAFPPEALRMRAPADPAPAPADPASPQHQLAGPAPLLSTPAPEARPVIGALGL
Procedure, shortened: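 Lysates of Expi cells expressing ATGL, supplemented with purified CGI-58 and inhibitor in DMSO, incubated 1 h at 37 °C with emulsified radiolabelled triolein (330 μM) in potassium phosphate pH 7.0 with 5% FA-free BSA. Released FA counted by liquid scintillation after phase extraction; IC50 versus DMSO control, duplicates.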

Stability in human serum = format: in vitro ADME; details: 37° C., HPLC MS
Protocol: Inhibitors were incubated in human serum for 0 or 3 h at 37° C. and subsequently extracted with the MTBE method and analyzed via HPLC MS. Samples measured in triplicates.

human ATGL [3] = molecular target: T3, human ATGL; experiment: Ki determination, human ATGL lysates with increasing substrate concentrations; format: biochemical; details: non-linear regression
Protocol: For determination of Ki values, lysates from Expi cells overexpressing human ATGL were incubated with recombinant purified ATGL co-activator CGI-58 and ATGL inhibitors at a single concentration dependent on the previously determined IC50. Increasing concentrations of substrate containing radiolabeled triolein were added and liberated FA were extracted and quantified by liquid scintillation. Inhibitors were dissolved in DMSO which was used as control. Ki was determined via non-linear regression analysis. Samples were measured in triplicates.

[4] = fatty acid release, read-out: IC50 SGBS FA release
[5] = 50 μM compound, Example 237, read-out: Inhibition of murine ATGL at 50 μM − mean [%]
[6] = Example 237, read-out: Inhibition of human ATGL − IC50
[7] = glycerol release, read-out: IC50 SGBS glycerol release
[8] = 50 μM, overview table, read-out: mouse ATGL inhibition [% inhibition at 50 μM]
[9] = 50 μM, Example 238, read-out: % Inhibition of murine ATGL at 50 μM
[10] = Example 238, read-out: Inhibition of human ATGL IC50

| SMILES | inhibition at 50 µM (murine ATGL; [5]) | IC50 (human ATGL [2]; [6]) | melting point | other results |
| --- | --- | --- | --- | --- |
| CCOc1ccc(-c2cccc(C(=O)OC(C)C)n2)cc1 [Example 6] | 0% | 3 µM | – | inhibition at 100 µM (hPNPLA9): 0%; IC50 [1, 4]: 2 µM |
| CC(C)OC(=O)c1cccc(-c2ccc(C(F)(F)F)cc2)n1 [Example 41] | 28.2% | 3 µM | 98 to 99 °C | Stability in human serum [% rest after 3 h incubation] (Stability in human serum): 75%; Ki (human ATGL [3]): 2.5 µM |
| COc1cc(C(=O)OC(C)C)nc(-c2ccc(C(F)(F)F)cc2)c1 [Example 58] | 0% | 7 µM | 55 to 56 °C | – |
| C#CC(C)OC(=O)c1cccc(-c2ccc(CCC)cc2)n1 (centres unmarked) [Example 70] | 0% | 3 µM | 90 to 92 °C | – |
| CC(C)OC(=O)c1cccc(/C=C/c2ccccc2)n1 [Example 76] | 5.1% | 10 µM | 66 to 71 °C | – |
| CCCCCCOc1ccc(-c2cc(OC)cc(C(=O)OC(C)C)n2)cc1 [Example 83] | 0.1% | 2.5 µM | 53 to 55 °C | – |
| CC(C)OC(=O)c1cccc(-c2ccc(-c3nc4ccccc4n3-c3ccccc3)cc2)n1 [Example 84] | 0% | 10 µM | 172 to 176 °C | – |
| CCCCCOc1ccc(-c2cccc(C(=O)OC(C)C)n2)cc1 [Example 85] | 0% | 3 µM | 63 to 65 °C | – |
| CC(C)OC(=O)c1cccc(-c2ccc(Cl)cc2)n1 [Example 87] | 0% | 3 µM | 94 to 95 °C | – |
| CCOC(=O)c1cccc(-c2ccc(C#N)cc2)n1 [Example 88] | 0% | 25 µM | 108 to 109 °C | – |
| CCCCCCOc1ccc(-c2cccc(C(=O)OC)n2)cc1 [Example 89] | 0% | 25 µM | 68 to 69 °C | – |
| CCCCc1ccc(-c2cccc(C(=O)OC(C)C)n2)cc1 [Example 94] | 0% | 2 µM | 51 to 55 °C | – |
| CCOC(=O)c1csc(-c2ccc(OCC)cc2)n1 [Example 101, Ethyl 2-(4-ethoxyphenyl)thiazole-4-carboxylate] | 23.6% | – | – | IC50 [1, 4]: 3 µM; IC50 [1, 7]: 3 µM; inhibition at 50 µM (murine ATGL; [8]): 30%; IC50 (human ATGL [2]; values of text and figure legend, read-out: IC50 on human ATGL (hATGL)): 2.5 µM; Stability in human serum [% rest after 3 h incubation] (Stability in human serum): 25%; Ki (human ATGL [3]): 2.5 µM |
| CCCOc1ccc(-c2nc(C(=O)OCC)cs2)cc1 [Example 105, Ethyl 2-(4-propoxyphenyl)thiazole-4-carboxylate] | 12.2% | 3 µM | – | IC50 [1, 4]: 3 µM; IC50 [1, 7]: 3 µM |
| C=C(C)COC(=O)c1csc(-c2ccc(OCC)cc2)n1 [Example 120, 2-Methylallyl 2-(4-ethoxyphenyl)thiazole-4-carboxylate] | 40.5% | 4 µM | – | inhibition at 50 µM (murine ATGL; [8]): 40%; Stability in human serum [% rest after 3 h incubation] (Stability in human serum): 5%; Ki (human ATGL [3]): 1.2 µM |
| C=CC(C)OC(=O)c1csc(-c2ccc(OCC)cc2)n1 (centres unmarked) [Example 148, But-3-en-2-yl 2-(4-ethoxyphenyl)thiazole-4-carboxylate] | – | 2 µM | – | IC50 [1, 4]: 2 µM; IC50 [1, 7]: 3 µM; inhibition at 50 µM (murine ATGL; [8]): 30% |
| CCOC(=O)c1csc(-c2ccc(OCc3ccccc3)cc2)n1 [Example 187, Ethyl 2-(4-(benzyloxy)phenyl)thiazole-4-carboxylate] | 10.2% | 15 µM | 112 to 115 °C | – |
| CCOc1ccc(-c2cccc(C(=O)OCc3ccsc3)n2)cc1 [Example 197, Thiophen-3-ylmethyl 6-(4-ethoxyphenyl)picolinate] | – | – | 90 to 93 °C | inhibition at 50 µM (murine ATGL; [9]): 75%; IC50 (human ATGL [2]; [10]): 30 µM |
| CCOc1ccc(-c2cccc(C(=O)OCc3ccoc3)n2)cc1 [Example 198, Furan-3-ylmethyl 6-(4-ethoxyphenyl)picolinate] | – | – | 97 to 101 °C | inhibition at 50 µM (murine ATGL; [9]): 82%; IC50 (human ATGL [2]; [10]): 20 µM |
